For data set [1], the system named is Chinese hamster ovary (CHO) AA8 cell line. The experiment in a line: LDH release toxicity assay in cultured CHO AA8 cells. It counts as cell-based. Particulars: 1 hour incubation, read-out: LC50 (the source's name). As for the experimental part: Various DP-BFA molecules were screened in cultured Chinese hamster ovary (CHO) AA8 cell line in order to establish their toxicity. LC50 values, i.e. the concentrations causing death in 50% of cell population, were calculated from dose response curves. LC50 values of phospho-BFAs were compared to those of the corresponding branched fatty acids (=carbo-BFAs).
Lactate dehydrogenase (LDH) release was used as an assay for the integrity of the cells membrane and, thus, for estimation of toxicity. Cells (2×10^5/ml) were seeded (150 μl/well) in 96 well plates, in RPMI-1640 medium containing 10% FCS. After two days, tested DP-BFA compounds or the control compound myristic acid were added to the plates in declining concentrations ranging from 500 to 1 μg/ml. Cells were harvested after one hour. […] Other controls included, two blank wells and five wells containing cells with no additional drugs. Following centrifugation (1500 rpm, 5 min), 75 μl of the supernatant was transferred to a new plate with 45 μl of an LDH assay mix (Tox-7 kit, Sigma). After 10–20 minutes at room temperature, absorbance was measured using an Elisa Reader 490 nm.
Each experiment was performed in triplicate.

Data set [2] has as its system C6 glioma cell line. The experiment in a line: MTT cytotoxicity, C6 glioma. Particulars: three days, read-out: EC50 (50% reduction in cell viability). It counts as cell-based, rat. Here is the method:
The cytotoxic activity of various phospho-derivatives of branched-chain fatty acids (DP-BFAs) was assayed in vitro in cell cultures that include normal and malignant cell types. The following cell systems were used: • Primary fibroblasts (human) • Normal bone marrow (BM) cells (mouse) • Primary bronchial epithelial cells (human, from Clonetics, cat. no. CC-2541) • Caco-2—colon cancer cell line (human, ATTC, HTB-37) • C6 glioma cell line (rat, ATCC, CRL-2199) • Neuro2a—neuroblastoma cell line (mouse, ATCC, CCL-131) • SKBR-3—breast cancer cell line (human, ATTC, HTB-30) • HL60—myeloid leukemia cell line (human, ATCC, CCL-240) • U937—myeloid leukemia cell line (human)
Cells were seeded in a microtiter plate in MEM containing 2 mM L-glutamine, 100 units/ml penicillin, 100 ug/ml streptomycin and 10% FCS at 37° C. The cultured cells were incubated, during their linear growth phase in the absence (control group) or presence of various DP-BFAs as indicated. The final concentrations of the tested DP-BFAs ranged from 1.5 to 200 microMolars. At the end of the incubation period, which was five days for the bone marrow cells and three days for all the other cell lines, the cytotoxic effect of the added P-BFA on the cells was estimated by using the colorimetric MTT assay. The MTT assay (Mosmann (1983) J. Immunol Methods 65: 55–63) measures mitochondrial reductase activity and serves for quantitative assessment of cellular viability. Drug concentration that causes 50% reduction in cell viability in comparison to the control group, is defined as EC50. The EC50 values of the tested DP-BFA compounds were calculated from dose response curves established for each of the different assayed cell lines.
Each EC50 value is an average of EC50 values derived from 1–5 independent experiments.

For data set [3], the system named is caspase-3 activity in Neuro2a neuroblastoma cells. The experiment in a line: Caspase-3 activity in Neuro2a cell lysates (Ac-DEVD-AMC substrate). It is filed as cell-based, mouse. As for the experimental part: (§1) In order to further explore the possible mechanism underlying the cytotoxic effect exerted by the various DP-BFAs, two established markers for apoptosis, caspase-3 activity and DNA fragmentation (Lincz (1998) Immunol. Cell Biol. 76: 1–19), were studied.
(§2) Neuro2a neuroblastoma cells (ATCC, CCL-131) were seeded in MEM containing 2 mM L-glutamine, 100 units/ml penicillin, 100 ug/ml streptomycin and 10% FCS at 37° C. 24 hours later, when cells were in logarithmic growth phase, 3,12-DEG-PC was added to a final concentration of 25 μM, 50 μM or 100 μM. Cells grown in the presence of vehicle only served as control group.
(§3) Assays for caspase-3 activity and DNA-fragmentation were performed on cell lysates obtained following, respectively, 6 and 24 hours incubation with the drug. Caspase-3 activity was assayed using the fluorogenic substrate Ac-DEVD-AMC (Pharmingen, Becton Dickinson, cat. no. 66081U) and following the manufacture's instructions. DNA-fragmentation was quantified by using the Cell Death Detection Elisa plus kit (Roche, cat. no. 1774 425) and following the manufacture's instructions.
(§4) The measured caspase activity is expressed as percentage of the activity in the control plates normalized to protein content. DNA-fragmentation is expressed as OD values at λ=405 nm and is an average of readings from duplicate cell culture lysates.

Data set [4] deals with DNA fragmentation in Neuro2a neuroblastoma cells. Kind of data set: DNA fragmentation in Neuro2a cells (Cell Death Detection Elisa). It is filed as cell-based, mouse. Particulars: for DNA fragmentation (OD405 nm): 24 hours, Neuro2a (control 0.030). As for the experimental part: as §1, §2, §3, §4
Data set [5] relates to blood brain barrier (BBB). Kind of data set: Duration of the effect on BBB opening in rat brain. It is filed as in vivo, Sprague Dawley rats. The settings on record: EC50 concentrations of the tested compounds. The text has this:
The effects of DP-BFA on Evans Blue and Fluoroscein extravasation in rat brain were examined at various time points following DP-BFA administration. Various DP-BFA compounds were infused, over a period of 30 seconds, into the external carotid artery of Sprague Dawley rats, following the procedure described above in Example 17. The tested compounds were used at their EC50 concentrations. […] Two compounds, 3,12-PC and 3,12-MEG-PC, both comprising a phosphocholine moiety, have shown D1/2 which was 4 times longer than the other tested 3,12-BFA derivatives, i.e. D1/2 of around 120 min.

For data set [6], the system named is blood tumor barrier / blood brain barrier. Kind of data set: Unilateral administration in rats with bilateral C6 gliomas, Evans blue staining of brain sections. It is filed as in vivo, SD rats. The settings on record: 10 μM 3,12-DEG-HPO4Na; 40 μM 3,12-Na; 25% mannitol; unilateral infusion. Here is the method:
FIGS. 2A–C depict Evans blue accumulation in brain sections of rats bearing bilateral gliomas following unilateral administration of a compound as follows: 10 μM 3,12-DEG-HPO4Na (FIG. 2A), 40 μM 3,12-Na (FIG. 2B) or mannitol 25% (FIG. 2C).
Evans Blue and Fluoroscein penetration into gliomas tumors was examined following unilateral infusion into the external carotis artery of either 10 μM 3,12-DEG-HPO4Na (FIG. 2A), 40 μM 3,12-Na BFA (FIG. 2B) or 25% mannitol (FIG. 2C). The relevant compound was infused into rat brains at 9 to 12 days following inoculation of C6 glioma cells as described in Example 23.

Read-outs that look alike come from different tables or passages of the source.

Broadly, the EC50 is the midpoint of the concentration-response curve. As to `CCCCCCCCCCCCC(CCC)C(=O)OCCOCCOP(=O)([O-])[O-].[Na+].[Na+]` (stereo not drawn) [3,12-DEG-PO4Na2, 2-[2′-(2″-Propyltetradecanoyloxy)-ethoxy]ethyl Disodium Phosphate], the CC50 in data set [1] came to 320 µM. For the same molecule, in data set [2], the EC50 is 38 µM.

For the molecule `CCCCCCCCCCCCC(CCC)C(=O)OCCOCCOP(=O)([O-])OCC[N+](C)(C)C` (stereo not drawn) [3,12-DEG-PC, 2-(2′-Propyltetradecanoyloxy)ethoxyethylphosphocholine], the EC50 in data set [2] (Rattus norvegicus, 72 h) was found to be 95 µM. Further, the activity at 25 µM in data set [3] (Mus musculus, N2a, 25 μM, 6 hours, Neuro2a, normalized to protein content, read-out: Caspase activity (% of control)) is 210%. Also, the activity at 50 µM in data set [3] (Mus musculus, N2a, 50 μM, 6 hours, Neuro2a, normalized to protein content, read-out: Caspase activity (% of control)) was 540%. The “increase in caspase-3 activity” value in data set [3] (Neuro2a cells) is given as “about 5 fold”. The results for the “DNA fragmentation (OD405 nm)” value in data set [4] (25 μM), in data set [4] (50 μM) and in data set [4] (100 μM) were 0.036 OD405 nm, 0.153 OD405 nm and 0.389 OD405 nm, respectively. Besides, the “DNA fragmentation (in words)” value in data set [4] (Neuro2a cells) is recorded as “significant increase in DNA fragmentation”.

As for `CCCCCCCCCCCCC(CCC)C(=O)OCCOP(=O)([O-])OCC[N+](C)(C)C` (stereo not drawn) [3,12-MEG-PC, 2-(2′-Propyltetradecanoyloxy)ethylphosphocholine], in data set [5], the “D1/2 (duration of at least 50% opening of the BBB)” value was “around 120 min”.

On to “2-(4′-Hexadecanoyloxy)ethoxyethyl phosphate [3,12-DEG-PO4]”, for which the “Evans Blue staining of tumor and non-tumor brain (FIG. 2, in words)” value in data set [6] is “only in the tumor tissue in the ipsilateral hemisphere”.

As to `CCCCCCCCCCCCC(CCC)C(=O)[O-].[Na+]` (stereo not drawn) [3,12-Na, reference compound], the CC50 in data set [1] is 165 µM. The “Evans Blue staining of tumor and non-tumor brain (FIG. 2, in words)” value in data set [6] was “equally permeabilized tumor and non-tumor brain tissues”.

For the molecule `CCCCCCCCCCCCC(CCC)OP(=O)([O-])OCC[N+](C)(C)C` (stereo not drawn) [3,12-PC, 4-Hexadecanyl phosphocholine], the “D1/2 (duration of at least 50% opening of the BBB)” value in data set [5] is given as “around 120 min”.

Source of the values: patent US7186703B2, “Derivatives of branched-chain lipophilic molecules and uses thereof” (D-Pharm Ltd., priority 2000, dated 2007).
